The assay has as its target T1, hMC2 receptor (crude hMC2R membranes from CRE-bla-CHO-K1 cells stably expressing hMC2 receptor and hMRAP accessory protein) (Homo sapiens, UniProt Q01718).
T1 construct: crude membrane fractions
In words: hMC2 membrane binding assay ([125I]ACTH (1-39) Tyr23, SPA). The note with it: displacement of 0.2 nM [125I]ACTH (1-39) Tyr23 from hMC2R membranes, 1.5 hours at room temperature; read-out: MC2R binding potency. The procedure, abridged:
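Ki values come from non-linear regression of SPA scintillation counts, with compounds displacing [125I]ACTH(1-39) Tyr23. Membranes come from CRE-bla-CHO-K1 cells stably expressing hMC2 receptor together with hMRAP. They are preincubated with WGA-coated PVT SPA beads in 50 mM HEPES pH 7.4 with 0.20% BSA, Mg2+, Ca2+ and protease inhibitors.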
T1 sequence (Q01718 whole entry): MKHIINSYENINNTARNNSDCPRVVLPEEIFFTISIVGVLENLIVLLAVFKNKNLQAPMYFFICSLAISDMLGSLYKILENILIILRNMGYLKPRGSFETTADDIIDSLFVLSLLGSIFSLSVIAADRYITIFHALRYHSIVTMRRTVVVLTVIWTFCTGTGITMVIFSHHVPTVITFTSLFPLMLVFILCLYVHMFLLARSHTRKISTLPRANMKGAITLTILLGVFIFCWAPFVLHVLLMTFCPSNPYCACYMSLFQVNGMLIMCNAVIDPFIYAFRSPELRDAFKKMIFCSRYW
T1 sequence (Q8TCY5 whole entry partner): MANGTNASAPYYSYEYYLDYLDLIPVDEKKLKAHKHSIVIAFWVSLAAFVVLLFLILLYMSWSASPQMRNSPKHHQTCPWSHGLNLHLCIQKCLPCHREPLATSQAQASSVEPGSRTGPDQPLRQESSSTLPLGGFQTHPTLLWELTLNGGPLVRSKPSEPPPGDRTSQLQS
In the case of `CNC[C@H](C)NC(=O)C1(c2cnc(-c3cccn3C)c(F)c2)CCN(c2ccc(C(F)(F)F)cc2C#N)CC1` [Compound 1-326, 1-[2-cyano-4-(trifluoromethyl)phenyl]-4-[5-fluoro-6-(1-methyl-1H-pyrrol-2-yl)pyridin-3-yl]-N-[(2S)-1-(methylamino)propan-2-yl]piperidine-4-carboxamide], the Ki was under 10 nM.

As to `COc1nc2ccccc2cc1-c1ccc(C2(C(=O)N[C@@H]3CCN(C)C3)CCN(c3ccc(C(F)(F)F)cc3C#N)CC2)cn1` [Compound 1-189, 1-[2-cyano-4-(trifluoromethyl)phenyl]-4-[6-(2-methoxyquinolin-3-yl)pyridin-3-yl]-N-[(3R)-1-methylpyrrolidin-3-yl]piperidine-4-carboxamide], the Ki is under 10 nM.

Regarding `COc1ccccc1-c1ccc(C2(NC(=O)OCCN(C)C)CCN(c3ccc(C(F)(F)F)cc3C#N)CC2)cn1` [Compound 2-57, 2-(dimethylamino)ethyl N-{1-[2-cyano-4-(trifluoromethyl)phenyl]-4-[6-(2-methoxyphenyl)pyridin-3-yl]piperidin-4-yl}carbamate], the Ki is under 10 nM.

For `Cn1cccc1-c1ccc(C2(C(=O)NC[C@H]3CCCN3)CCN(c3ccc(C(F)(F)F)cc3C#N)CC2)cn1` [Compound 1-231, 1-[2-cyano-4-(trifluoromethyl)phenyl]-4-[6-(1-methyl-1H-pyrrol-2-yl)pyridin-3-yl]-N-{[(2R)-pyrrolidin-2-yl]methyl}piperidine-4-carboxamide], the Ki is under 10 nM.

With `CCOc1ccccc1-c1ccc(C2(C(=O)N[C@H]3CCN(C)C3)CCN(c3ccc(C(F)(F)F)cc3Cl)CC2)nn1` [Compound 1-175, 1-[2-chloro-4-(trifluoromethyl)phenyl]-4-[6-(2-ethoxyphenyl)pyridazin-3-yl]-N-[(3S)-1-methylpyrrolidin-3-yl]piperidine-4-carboxamide], the Ki is under 10 nM.

As for `CN1CC[C@@H](OC(=O)NC2(c3ccc(-c4cccn4C)nc3)CCN(c3ccc(C(F)(F)F)cc3C#N)CC2)C1` [Compound 2-41, (3R)-1-methylpyrrolidin-3-yl N-{1-[2-cyano-4-(trifluoromethyl)phenyl]-4-[6-(1-methyl-1H-pyrrol-2-yl)pyridin-3-yl]piperidin-4-yl}carbamate], the Ki is under 10 nM.

Turning to `CCOc1ccccc1-c1ncc(C2(C(=O)N[C@H]3CCN(C)C3)CCN(c3ccc(C(F)(F)F)nc3C#N)CC2)cc1F` [Compound 1-125, 1-[2-cyano-6-(trifluoromethyl)pyridin-3-yl]-4-[6-(2-ethoxyphenyl)-5-fluoropyridin-3-yl]-N-[(3S)-1-methylpyrrolidin-3-yl]piperidine-4-carboxamide], the Ki was under 10 nM.

Turning to `CCOc1ncccc1-c1ccc(C2(NC(=O)CN(C)C)CCN(c3ccc(C(F)(F)F)cc3C#N)CC2)cn1` [Compound 2-26, N-{1-[2-cyano-4-(trifluoromethyl)phenyl]-4-{2′-ethoxy-[2,3′-bipyridin]-5-yl}piperidin-4-yl}-2-(dimethylamino)acetamide], the Ki is under 10 nM.

Take `CNCCNC(=O)C1(c2ccc(-c3cccnc3OC)nc2)CCN(c2ccc(C(F)(F)F)cc2Cl)CC1` [Compound 1-274, 1-[2-chloro-4-(trifluoromethyl)phenyl]-4-{2′-methoxy-[2,3′-bipyridin]-5-yl}-N-[2-(methylamino)ethyl]piperidine-4-carboxamide]: the Ki is under 10 nM.

Regarding `CCOc1ncccc1-c1ccc(C2(OCCN(C)C)CCN(c3ccc(C(F)(F)F)cc3C#N)CC2)cc1` [Compound 2-1, 2-{4-[2-(dimethylamino)ethoxy]-4-[4-(2-ethoxypyridin-3-yl)phenyl]piperidin-1-yl}-5-(trifluoromethyl)benzonitrile], the Ki is 10 to 100 nM.

On to `CN1CC[C@H](NC(=O)C2(c3ccc(-c4ccccc4C4CC4)nc3)CCN(c3ccc(C(F)(F)F)cc3C#N)CC2)C1` [Compound 1-121, 1-[2-cyano-4-(trifluoromethyl)phenyl]-4-[6-(2-cyclopropylphenyl)pyridin-3-yl]-N-[(3S)-1-methylpyrrolidin-3-yl]piperidine-4-carboxamide], for which the Ki was under 10 nM.

On to `COc1ccccc1-c1ccc(C2(C(=O)N[C@@H]3CNC[C@@H]3F)CCN(c3ccc(C(F)(F)F)cc3C#N)CC2)cn1` [Compound 1-237, 1-[2-cyano-4-(trifluoromethyl)phenyl]-N-[(3R,4S)-4-fluoropyrrolidin-3-yl]-4-[6-(2-methoxyphenyl)pyridin-3-yl]piperidine-4-carboxamide], for which the Ki is under 10 nM.

As for `CCOc1ccccc1-c1ccc(C2(NC(=O)C3CN(C)C3)CCN(c3ccc(Cl)cc3C#N)CC2)cn1` [Compound 2-25, N-[1-(4-chloro-2-cyanophenyl)-4-[6-(2-ethoxyphenyl)pyridin-3-yl]piperidin-4-yl]-1-methylazetidine-3-carboxamide], the Ki was under 10 nM.

Take `CN1CC[C@@H](NC(=O)C2(c3ccc(-c4ccccc4OC4CC4)nc3)CCN(c3ccc(C(F)(F)F)cc3C#N)CC2)C1` [Compound 1-89, 1-[2-cyano-4-(trifluoromethyl)phenyl]-4-[6-(2-cyclopropoxyphenyl)pyridin-3-yl]-N-[(3R)-1-methylpyrrolidin-3-yl]piperidine-4-carboxamide]: the Ki was under 10 nM.

For the compound `COc1sccc1-c1ccc(C2(C(=O)N[C@H]3CCN(C)C3)CCN(c3ccc(C(F)(F)F)cc3Cl)CC2)cn1` [Compound 1-167, 1-[2-chloro-4-(trifluoromethyl)phenyl]-4-[6-(2-methoxythiophen-3-yl)pyridin-3-yl]-N-[(3S)-1-methylpyrrolidin-3-yl]piperidine-4-carboxamide], the Ki is under 10 nM.

Regarding `Cn1cccc1-c1ccc(C2(C(=O)NCCCN)CCN(c3ccc(C(F)(F)F)cc3C#N)CC2)cn1` [Compound 1-205, N-(3-aminopropyl)-1-[2-cyano-4-(trifluoromethyl)phenyl]-4-[6-(1-methyl-1H-pyrrol-2-yl)pyridin-3-yl]piperidine-4-carboxamide], the Ki lay in the range of 10 to 100 nM.

On to `CN1CC[C@@H](NC(=O)C2(c3ccc(-c4cccc5ccoc45)nc3)CCN(c3ccc(C(F)(F)F)cc3C#N)CC2)C1` [Compound 1-54, 4-[6-(1-benzofuran-7-yl)pyridin-3-yl]-1-[2-cyano-4-(trifluoromethyl)phenyl]-N-[(3R)-1-methylpyrrolidin-3-yl]piperidine-4-carboxamide], for which the Ki lay in the range of 10 to 100 nM.

With `CCOc1ncccc1-c1ccc(C2(C(=O)NC3CN(C)C3)CCN(c3ccc(C(F)(F)F)cc3C#N)CC2)cn1` [Compound 1-19, 1-[2-cyano-4-(trifluoromethyl)phenyl]-4-{2′-ethoxy-[2,3′-bipyridin]-5-yl}-N-(1-methylazetidin-3-yl)piperidine-4-carboxamide], the Ki is under 10 nM.

As for `CN1CC(C(=O)NC2(c3ccc(-c4cccn4C)nc3)CCN(c3ccc(C(F)(F)F)cc3C#N)CC2)C1` [Compound 2-45, N-{1-[2-cyano-4-(trifluoromethyl)phenyl]-4-[6-(1-methyl-1H-pyrrol-2-yl)pyridin-3-yl]piperidin-4-yl}-1-methylazetidine-3-carboxamide], the Ki was under 10 nM.

Consider `CCOc1ncccc1-c1ccc(C2(NC(=O)N3CC(NC)C3)CCN(c3ccc(C(F)(F)F)cc3C#N)CC2)cn1` [Compound 2-23, N-{1-[2-cyano-4-(trifluoromethyl)phenyl]-4-{2′-ethoxy-[2,3′-bipyridin]-5-yl}piperidin-4-yl}-3-(methylamino)azetidine-1-carboxamide], for which the Ki is under 10 nM.

As to `CCOc1ncccc1-c1ccc(C2(C(=O)NCCNC)CCN(c3ccc(C(F)(F)F)cc3C#N)CC2)cn1` [Compound 1-14, 1-[2-cyano-4-(trifluoromethyl)phenyl]-4-{2′-ethoxy-[2,3′-bipyridin]-5-yl}-N-[2-(methylamino)ethyl]piperidine-4-carboxamide], the Ki was under 10 nM.

Regarding `CNCCNC(=O)C1(c2cnc(-c3cccn3C)c(F)c2)CCN(c2ccc(C(F)(F)F)cc2F)CC1` [Compound 1-305, 1-[2-fluoro-4-(trifluoromethyl)phenyl]-4-[5-fluoro-6-(1-methyl-1H-pyrrol-2-yl)pyridin-3-yl]-N-[2-(methylamino)ethyl]piperidine-4-carboxamide], the Ki is under 10 nM.

For the compound `COc1ncccc1-c1ccc(C2(C(=O)NCCN(C)C)CCN(c3ccc(C(F)(F)F)cc3F)CC2)cn1` [Compound 1-271, N-[2-(dimethylamino)ethyl]-1-[2-fluoro-4-(trifluoromethyl)phenyl]-4-{2′-methoxy-[2,3′-bipyridin]-5-yl}piperidine-4-carboxamide], the Ki is under 10 nM.

As to `Cn1cccc1-c1ccc(C2(C(=O)N[C@H]3C[C@@H](N)C3)CCN(c3ccc(C(F)(F)F)cc3C#N)CC2)cn1` [Compound 1-233, 1-[2-cyano-4-(trifluoromethyl)phenyl]-4-[6-(1-methyl-1H-pyrrol-2-yl)pyridin-3-yl]-N-[(1S,3S)-3-aminocyclobutyl]piperidine-4-carboxamide], the Ki is 10 to 100 nM.

Regarding `CCOc1ncccc1-c1ccc(C2(C(=O)N[C@H]3CCN(C)C3)CCN(c3ccc(C(C)=O)cc3C#N)CC2)cn1` [Compound 1-36, 1-(4-acetyl-2-cyanophenyl)-4-{2′-ethoxy-[2,3′-bipyridin]-5-yl}-N-[(3S)-1-methylpyrrolidin-3-yl]piperidine-4-carboxamide], the Ki was under 10 nM.

As to `CCOc1ncccc1-c1ccc(C2(NC(=O)[C@H]3CCNC3)CCN(c3ccc(C(F)(F)F)cc3C#N)CC2)cn1` [Compound 2-8, (3S)—N-{1-[2-cyano-4-(trifluoromethyl)phenyl]-4-{2′-ethoxy-[2,3′-bipyridin]-5-yl}piperidin-4-yl}pyrrolidine-3-carboxamide], the Ki is under 10 nM.

The record behind these values is US12492181B2, “Gem-disubstituted piperidine melanocortin subtype-2 receptor (MC2R) antagonists and uses thereof” (Crinetics Pharmaceuticals, Inc., priority 2019, dated 2025).
